Test results from patent US7030265B2, “Retinol derivatives, the method of preparations and the uses thereof” (Chebigen, Inc., priority 2001, dated 2006).
“And” between values parts separate entries of the source, which are not always exact repeats. Equal entries are not always repeated.

Experiments:
Type in all cases: cell-based
retinoic acid receptor α [1] = biological target: T1, retinoic acid receptor α (Homo sapiens, UniProt P10276); assay: RAR activity test, DR5-tk-CAT reporter in Cos-1 cells; conditions: 1 μM, CAT ELISA, FIG. 3-5
T1 construct: expressed in transfected cells; b135 says HaCAT
T1 sequence (P10276 1-462): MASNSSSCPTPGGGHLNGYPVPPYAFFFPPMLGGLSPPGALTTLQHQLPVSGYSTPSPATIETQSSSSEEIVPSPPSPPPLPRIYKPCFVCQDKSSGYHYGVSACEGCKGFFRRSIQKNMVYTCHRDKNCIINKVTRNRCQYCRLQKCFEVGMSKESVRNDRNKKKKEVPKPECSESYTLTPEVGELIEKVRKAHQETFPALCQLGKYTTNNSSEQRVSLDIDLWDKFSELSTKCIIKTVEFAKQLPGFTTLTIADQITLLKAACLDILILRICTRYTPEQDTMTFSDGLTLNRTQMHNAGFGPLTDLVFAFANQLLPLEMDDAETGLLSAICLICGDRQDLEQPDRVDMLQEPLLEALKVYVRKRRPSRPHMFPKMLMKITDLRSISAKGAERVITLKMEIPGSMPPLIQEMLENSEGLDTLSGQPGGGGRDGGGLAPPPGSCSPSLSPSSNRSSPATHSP
Source text: Recombinant DNA, DR5-tk-CAT consisting of DR5, effectors of retinoic acid receptor/retinoid X receptor, thymine kinase promoter, and CAT (chloramphenicol acetyl transferase) were mixed with the plasmid DNA expressing retinoic acid receptor α, β, ? and utilized to cotransfect skin cancer (HaCAT) cell line with lipofectamine (GibcoBRL). […] The cells were washed with phosphate-buffered saline (PBS), and the proteins were isolated from each cells, and the activity of β-galactosidase and protein contents were measured to determine transfection efficacy, the transcription level of RAR receptor were measured with CAT ELISA.
(§1) All procedures were done as Experimental Example 3.
as §1

[2] = test system: activation protein-1 (AP-1); assay: Activity inhibition test of AP-1, Coll-CAT reporter in HaCAT cells; conditions: c-Jun expression, in the presence of retinoic acid receptor α, CAT ELISA, FIG. 6
Protocol: Since the activation protein-1 (c-Jun is the constituent of AP-1) is transcription factor inducing expression of collagenase enzyme, which is a major cause of skin wrinkle, the effect of wrinkle prevention was determined by the activity inhibition test of AP-1.
CAT reporter (Coll-CAT) containing collagen promoter including AP-1 transcription factor binding site (TRE) were utilized to cotransfect skin cancer (HaCAT) cell line. The effect of retinol derivatives on the activity of AP-1 was measured by CAT ELISA. In some cases, the vector expressing c-Jun or retinoic acid receptors were utilized to cotransfect, and the effect of retinol derivatives on the transcription activity of c-Jun was analyzed.
With the assumption of the prepared retinol-(N-formyl-aspartam) derivatives which inhibit the activity of AP-1 causing skin wrinkle, would have the utility for cosmetics, the related investigations were proceeded. Similar to the experiment of retinoic acid receptor, AP-1 (c-jun) expression vector and Coll-CAT plasmid for the activity measurement were introduced into the skin cancer (HaCAT) cell line with liposome. After treating the cells with retinol-(N-formyl-aspartam) derivatives, the cell extracts were isolated. The expression level of CAT were measured with CAT ELISA to determine the effect of retinol-(N-formyl-aspartam) on the activity of the AP-1.

retinoid X receptor β = biological target: T2, retinoid X receptor β (Homo sapiens, UniProt P28702); assay: RXR activity test, DR1-tk-CAT reporter in HaCAT cells; conditions: 1 μM, CAT ELISA, FIG. 2 (B)
T2 construct: expressed in transfected cells; host or cells: HaCAT
T2 sequence (P28702 1-533): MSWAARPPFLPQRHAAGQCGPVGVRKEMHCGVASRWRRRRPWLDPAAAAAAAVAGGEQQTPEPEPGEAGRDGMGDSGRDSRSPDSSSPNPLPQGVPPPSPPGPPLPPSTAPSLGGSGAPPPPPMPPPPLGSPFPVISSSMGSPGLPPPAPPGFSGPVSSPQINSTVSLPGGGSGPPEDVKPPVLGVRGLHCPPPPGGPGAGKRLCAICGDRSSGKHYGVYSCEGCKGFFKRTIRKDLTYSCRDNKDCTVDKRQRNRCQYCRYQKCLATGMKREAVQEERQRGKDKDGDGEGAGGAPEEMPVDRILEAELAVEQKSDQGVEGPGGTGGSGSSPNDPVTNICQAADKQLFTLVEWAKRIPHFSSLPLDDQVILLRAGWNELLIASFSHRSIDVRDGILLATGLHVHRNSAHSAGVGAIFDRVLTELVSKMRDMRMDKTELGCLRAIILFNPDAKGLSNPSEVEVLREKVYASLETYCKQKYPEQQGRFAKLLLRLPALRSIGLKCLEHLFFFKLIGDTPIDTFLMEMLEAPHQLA
Source text: (§2) To analyze the effects of retinol-(N-formyl-aspartam) on the activity of retinoic acid receptor, skin cancer (HaCAT) cell lines were utilized to measure the activity of retinoic acid receptor/retinoid X receptor.
(§3) Recombinant DNA, DR5-tk-CAT or DR1-tk-CAT consisting of DR1 or DR5, effectors of retinoic acid receptor/retinoid X receptor, thymine kinase promoter, and CAT(chloramphenicol acetyl transferase) were mixed with the plasmid DNA expressing retinoic acid receptor α, β, ? or retinoid X receptor α, β, ? to cotransfect skin cancer (HaCAT) cell line with lipofectamine (GibcoBRL). The cotransfected cell lines were cultured for 1 day on DMEM/10% FBS media, each retinol derivatives (1 μM) were added and cultured for one more day, 5% CO2, 37° C. The cells were washed with phosphate-buffered saline (PBS), and the proteins were isolated from each cells, and the activity of β-galactosidase and protein contents were measured to determine transfection efficacy, the transcription level of RAR or RXR receptor were measured with CAT ELISA (Roche Molecular Biochemical, Mannheim, Germany).

retinoid X receptor α = biological target: T3, retinoid X receptor α (Homo sapiens, UniProt P19793); assay: as above; conditions: 1 μM, CAT ELISA, FIG. 2 (B)
T3 construct: expressed in transfected cells; host or cells: HaCAT
T3 sequence (P19793 1-462): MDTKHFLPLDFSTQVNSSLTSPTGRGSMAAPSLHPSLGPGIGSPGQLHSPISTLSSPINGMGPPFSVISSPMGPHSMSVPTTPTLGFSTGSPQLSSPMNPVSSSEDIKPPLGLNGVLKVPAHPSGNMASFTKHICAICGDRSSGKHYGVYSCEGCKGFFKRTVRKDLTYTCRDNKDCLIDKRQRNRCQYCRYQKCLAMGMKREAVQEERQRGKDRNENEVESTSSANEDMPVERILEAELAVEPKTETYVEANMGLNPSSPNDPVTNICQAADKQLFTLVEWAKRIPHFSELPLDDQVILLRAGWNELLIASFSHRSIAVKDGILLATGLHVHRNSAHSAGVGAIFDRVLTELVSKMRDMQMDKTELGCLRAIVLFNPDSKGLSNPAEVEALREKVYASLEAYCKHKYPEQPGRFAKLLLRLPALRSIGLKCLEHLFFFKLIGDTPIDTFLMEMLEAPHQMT
Source text: as §2, §3

retinoid X receptor γ = biological target: T4, retinoid X receptor γ (Homo sapiens, UniProt P48443); assay: as above; conditions: 1 μM, CAT ELISA, FIG. 2 (B)
T4 construct: expressed in transfected cells; host or cells: HaCAT
T4 sequence (P48443 1-463): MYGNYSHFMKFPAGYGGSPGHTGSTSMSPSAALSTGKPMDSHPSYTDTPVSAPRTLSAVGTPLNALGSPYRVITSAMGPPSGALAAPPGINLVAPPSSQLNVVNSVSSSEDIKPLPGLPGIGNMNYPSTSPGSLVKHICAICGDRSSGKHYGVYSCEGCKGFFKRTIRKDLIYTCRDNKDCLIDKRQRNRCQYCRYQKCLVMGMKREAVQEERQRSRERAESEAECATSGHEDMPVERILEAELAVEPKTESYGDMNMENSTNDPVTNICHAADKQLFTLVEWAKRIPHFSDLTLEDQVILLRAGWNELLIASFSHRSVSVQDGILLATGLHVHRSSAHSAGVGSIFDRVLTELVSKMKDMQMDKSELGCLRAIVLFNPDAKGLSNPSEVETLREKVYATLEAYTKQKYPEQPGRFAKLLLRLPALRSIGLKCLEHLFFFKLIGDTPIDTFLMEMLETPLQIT
Source text: as §2, §3

[3] = test system: activation protein-1 (AP-1); assay: Activity inhibition test of AP-1, Coll-CAT reporter in Cos-1 cells; conditions: for lowered the expression of collagenase (Coll-CAT): expression level in the presence of c-Jun expression set as 100%; for effect on AP-1 activity inhibition, compared in words: Coll-CAT
Source text: CAT reporter (Coll-CAT) containing collagen promoter including AP-1 transcription factor binding site (TRE) was utilized to transfect Cos-1 cell line. Activity inhibition tests of activation protein-1 (AP-1) similar to the experimental example 6 were proceeded.

retinoic acid receptor α [4] = biological target: T1, retinoic acid receptor α; assay: RAR activity test, DR5-tk-CAT reporter in HaCAT cells; conditions: 1 μM, CAT ELISA, FIG. 2 (A)
Source text: as §2, §3
To determine the effect of retinol-(N-formyl-aspartam) on retinoic acid receptors, each retinoic acid receptor (α, β, or ? ) expression vector and activity measuring DR5-tk-CAT plasmid were introduced with liposome. After treating cells with retinol-(N-formyl-aspartam), the cell extracts were isolated. The expression level of CAT were measured with CAT ELISA to determine the effect of retinol-(N-formyl-aspartam) on the activity of retinoic acid receptors.

retinoic acid receptor β = biological target: T5, retinoic acid receptor β (Homo sapiens, UniProt P10826); assay: RAR activity test, DR5-tk-CAT reporter in Cos-1 cells; conditions: 1 μM, CAT ELISA, FIG. 3-5
T5 construct: expressed in transfected cells; b135 says HaCAT
T5 sequence (P10826 1-455): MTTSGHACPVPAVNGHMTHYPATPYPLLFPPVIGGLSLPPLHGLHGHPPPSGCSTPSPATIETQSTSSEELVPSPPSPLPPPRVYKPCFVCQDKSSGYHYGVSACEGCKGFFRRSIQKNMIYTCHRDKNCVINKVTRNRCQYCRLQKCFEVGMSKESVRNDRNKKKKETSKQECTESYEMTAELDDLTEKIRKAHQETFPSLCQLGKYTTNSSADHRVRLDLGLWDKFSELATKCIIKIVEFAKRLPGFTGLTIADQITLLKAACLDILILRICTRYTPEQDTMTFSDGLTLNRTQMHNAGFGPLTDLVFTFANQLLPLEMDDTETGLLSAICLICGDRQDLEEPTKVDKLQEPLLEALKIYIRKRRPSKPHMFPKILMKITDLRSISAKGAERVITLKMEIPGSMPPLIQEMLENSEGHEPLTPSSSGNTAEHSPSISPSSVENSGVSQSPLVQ

retinoic acid receptor γ = biological target: T6, retinoic acid receptor γ (Homo sapiens, UniProt P13631); assay: as above; conditions: 1 μM, CAT ELISA, FIG. 3-5
T6 construct: expressed in transfected cells; b135 says HaCAT
T6 sequence (P13631 1-454): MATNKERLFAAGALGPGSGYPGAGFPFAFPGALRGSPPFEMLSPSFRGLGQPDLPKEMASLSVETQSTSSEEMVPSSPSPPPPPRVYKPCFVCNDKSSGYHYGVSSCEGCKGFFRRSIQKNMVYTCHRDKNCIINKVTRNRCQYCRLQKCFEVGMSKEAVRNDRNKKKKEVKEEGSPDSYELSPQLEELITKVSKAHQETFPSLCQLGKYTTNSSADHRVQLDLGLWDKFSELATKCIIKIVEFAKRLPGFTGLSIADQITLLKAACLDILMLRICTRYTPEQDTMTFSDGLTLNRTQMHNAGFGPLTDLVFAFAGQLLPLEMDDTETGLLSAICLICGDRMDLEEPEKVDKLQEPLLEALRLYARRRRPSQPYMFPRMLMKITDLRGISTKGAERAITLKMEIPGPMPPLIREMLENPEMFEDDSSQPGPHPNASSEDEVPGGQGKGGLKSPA

Compound	activation of retinoic acid receptor α (retinoic acid receptor α [1])	activation of retinoid X receptor β (retinoid X receptor β)	activation of retinoid X receptor α (retinoid X receptor α)	activation of retinoid X receptor γ (retinoid X receptor γ)	activation of retinoic acid receptor α (retinoic acid receptor α [4])	activation of retinoic acid receptor β (retinoic acid receptor β)	activation of retinoic acid receptor γ (retinoic acid receptor γ)	lowered the expression of collagenase (Coll-CAT) [2]	lowered the expression of collagenase (Coll-CAT) [3]	effect on AP-1 activity inhibition, compared in words [3]
CC1=C(/C=C/C(C)=C/C=C/C(C)=C/COC(=O)/C=C/C(=O)OC/C=C(C)/C=C/C=C(C)/C=C/C2=C(C)CCCC2(C)C)C(C)(C)CCC1 [retinol-(fumalic acid), Di[(2E,4E,6E,8E)-3,7-dimethyl-9-(2,6,6-trimethyl-1-cyclohexenyl)-2,4,6,8-nonatetraenyl] (E)-2-butenedioate]	high activation	–	–	–	–	weak activation	weak activation	–	approximately 42%	no significant effect on AP-1 activity inhibition than retinoic acid or retinol
CC1=C(/C=C/C(C)=C/C=C/C(C)=C/COC(=O)/C=C(\C)C(=O)OC/C=C(C)/C=C/C=C(C)/C=C/C2=C(C)CCCC2(C)C)C(C)(C)CCC1 [retinol-(mesaconic acid), Di[(2E,4E,6E,8E)-3,7-dimethyl-9-(2,6,6-trimethyl-1-cyclohexenyl)-2.4,6,8-nonatetraenyl] (E)-2-methyl-2-butenedioate]	–	–	–	–	–	–	–	–	~30%	less effect on AP-1 activity inhibition than retinoic acid or retinol
CC1=C(/C=C/C(C)=C/C=C/C(C)=C/C(=O)O)C(C)(C)CCC1 [retinoic acid, reference compound]	–	–	–	–	–	–	–	approximately 60%	~50% and ~47.5%	–

Continued, in another order:

activation of retinoic acid receptor α (retinoic acid receptor α [1])	activation of retinoid X receptor β (retinoid X receptor β)	activation of retinoid X receptor α (retinoid X receptor α)	activation of retinoid X receptor γ (retinoid X receptor γ)	activation of retinoic acid receptor α (retinoic acid receptor α [4])	activation of retinoic acid receptor β (retinoic acid receptor β)	activation of retinoic acid receptor γ (retinoic acid receptor γ)	Compound	lowered the expression of collagenase (Coll-CAT) [2]	lowered the expression of collagenase (Coll-CAT) [3]	effect on AP-1 activity inhibition, compared in words [3]
high activation	no activation	no activation	no activation	high activation	–	–	CC1=C(/C=C/C(C)=C/C=C/C(C)=C/CO)C(C)(C)CCC1 [retinol]	approximately 47%	approximately 43%	–
high activation	–	–	–	–	weak activation	weak activation	CC1=C(/C=C/C(C)=C/C=C/C(C)=C/COC/C=C(C)/C=C/C=C(C)/C=C/C2=C(C)CCCC2(C)C)C(C)(C)CCC1 [retinol-(retinol), (1E,3E,5E,7E)-9[(2E,4E,6E,8E)-3,7-dimethyl-9-(2,6,6-trimethyl-1-cyclohexenyl)-2,4,6,8-nonatetraenyl]oxy-3,7-dimethyl-1-(2,6,6-trimethyl-1-cyclohexenyl)-1,3,5,7-nonateraene]	–	~41.5%	–
